Results taken from patent US20240018124A1, “MODULATORS OF FPR1 AND METHODS OF USING THE SAME” (BIOFRONT LTD, priority 2021, published 2024).
pIC50: −log10 of the molar value.

What was measured:
FPR1 [1] = biological target: T1, FPR1 (Homo sapiens (Human), UniProt P21462); experiment: Cyclic adenosine monophosphate (cAMP) assay, CHO-K1 cells stably overexpressing hFPR1; format: cell-based; conditions: 2.5 μM Forskolin and 0.25 nM WKYMVm (FPR1 agonist)
Protocol: Cyclic Adenosine Monophosphate (cAMP) Assay
CHO-K1 cells stably overexpressing hFPR1 were plated into 384-well cell culture plates (2,000/well/5 μL) in 1× Stimulation Buffer (LANCE Ultra cAMP Kit, Perkin Elmer, TRF0263). 1 μL compound solution (prepared in ddH2O containing 0.2% DMSO) was added to each well. Plates were centrifuged briefly, and cells were incubated at 37° C. in 5% CO2 for 10 minutes. 4 μL solution containing 2.5 μM Forskolin and 0.25 nM WKYMVm (an FPR1 agonist, GLPBIO, GC15140) was then added to each well. 5 μL of Eu-cAMP solution (diluted to manufacturer's recommended working concentration in Detection Buffer, LANCE Ultra cAMP Kit) and 5 μL of ULight-anti-cAMP solution (diluted in Detection Buffer, LANCE Ultra cAMP Kit) were added to each well. Plates were centrifuged briefly, and cells were incubated at room temperature for 1 hour. Fluorescence emission at 665 nm and 620 nm from the samples was measured by a Perkin Elmer Envision instrument.
(§1) The effects of the compounds of the present disclosure on regulating the FPR1-mediated cell signaling were measured by monitoring the cellular cAMP level change and anti-reactive oxygen species formation in human neutrophils in the presence of an FPR1 agonist, respectively, as illustrated by the examples in Table 1.

FPR1 [2] = biological target: T1, FPR1; experiment: Reactive oxygen species (ROS) assay in human neutrophils stimulated with fMLP; format: cell-based; conditions: human neutrophils from whole blood; fMLP (500 nM); DCFH-DA fluorescence; read-out: Anti-ROS IC50
Protocol: Reactive Oxygen Species (ROS) Assay
Human whole blood was collected, and ACK lysis buffer (ThermoFisher, A1049201) was added at 3 times the volume of the blood sample to lyse the red blood cells. The sample was incubated on ice for 15 minutes, and gently mixed twice during the incubation. 10 mL DPBS was then added, and the sample was centrifuged for 8 minutes. After removing the supernatant, remaining cells were resuspended in RPMI1640 medium containing 3% FBS and centrifuged again for 10 minutes. After removing the supernatant, cells were again resuspended in RPMI1640 medium containing 3% FBS. Neutrophil cell count was determined using FACS analysis by APC-labeled CD11b antibody (Biolegend, 101211) and FITC-labeled CD66b antibody (Biolegend, 305104). Neutrophils were then plated into 96-well plates (300,000/well). Plates were centrifuged and supernatant was removed. Cells were resuspended in 80 μL of compound solution (prepared in RPMI1640 medium containing 3% FBS), then incubated at room temperature for 15 minutes. 20 μL solution containing DCFH-DA (at the manufacturer's recommended concentration, Yeasen Biotechnology, 50101ES01) and fMLP (500 nM) was then added. Cells were incubated at 37° C. in 5% CO2 for 20 minutes away from light. After incubation, cells were placed on ice for 5 minutes, washed twice with 200 μL ice-cold DPBS, then resuspended in ice-cold DPBS at 100 µL/well. Fluorescence from each sample was measured at 485 nm excitation and 535 nm emission.
as §1

T1 sequence (P21462 whole entry): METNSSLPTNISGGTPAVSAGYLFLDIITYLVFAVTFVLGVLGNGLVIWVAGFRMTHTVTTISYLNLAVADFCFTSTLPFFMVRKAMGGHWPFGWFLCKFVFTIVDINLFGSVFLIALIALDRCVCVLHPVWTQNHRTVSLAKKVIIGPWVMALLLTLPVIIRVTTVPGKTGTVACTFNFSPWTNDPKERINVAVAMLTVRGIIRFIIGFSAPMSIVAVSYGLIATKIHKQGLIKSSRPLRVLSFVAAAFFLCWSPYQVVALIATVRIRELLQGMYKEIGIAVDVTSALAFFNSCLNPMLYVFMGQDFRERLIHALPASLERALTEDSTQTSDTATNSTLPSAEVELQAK

In the case of `COCc1cncc(-c2nn(C)c(C(=O)N[C@@H](C)C(C)(C)C)c2NS(=O)(=O)c2ccc(Cl)cc2)c1` [Compound 40, (S)-4-((4-chlorophenyl)sulfonamido)-N-(3,3-dimethylbutan-2-yl)-3-(5-(methoxymethyl)pyridin-3-yl)-1-methyl-1H-pyrazole-5-carboxamide], the pIC50 (FPR1 [1]) was 4.60 to 6.00.

For `COCc1cccc(-c2nn(C)c(C(=O)N[C@@H](C)C(C)(C)C)c2NS(=O)(=O)c2ccc(C)cc2)c1` [Compound 15, (S)—N-(3,3-dimethylbutan-2-yl)-3-(3-(methoxymethyl)phenyl)-1-methyl-4-((4-methylphenyl)sulfonamido)-1H-pyrazole-5-carboxamide], the pIC50 (FPR1 [1]) was less than 4.60 and the pIC50 (FPR1 [2]) was 6.00 to 7.00.

`Cc1ccc(S(=O)(=O)Nc2c(C3=CCC(C#N)CC3)nn(C)c2C(=O)N[C@@H](C)C(C)(C)C)cc1` (stereo partly drawn) [Compound 32, 3-(4-cyanocyclohex-1-en-1-yl)-N—((S)-3,3-dimethylbutan-2-yl)-1-methyl-4-((4-methylphenyl)sulfonamido)-1H-pyrazole-5-carboxamide] showed a pIC50 (FPR1 [1]) of 4.60 to 6.00.

With `C[C@H](NC(=O)c1c(NS(=O)(=O)c2ccc(C3CC3)cc2)c(-c2ccc(F)cc2)nn1C)C(C)(C)C` [Compound 26, (S)-4-((4-cyclopropylphenyl)sulfonamido)-N-(3,3-dimethylbutan-2-yl)-3-(4-fluorophenyl)-1-methyl-1H-pyrazole-5-carboxamide] the pIC50 (FPR1 [1]) was 4.60 to 6.00 and the pIC50 (FPR1 [2]) was 6.00 to 7.00.

Work on `CC[C@H](C)NC(=O)c1c(NS(=O)(=O)c2ccccc2)c(-c2ccc(F)cc2)nn1C` [Compound 3, (S)—N-(sec-butyl)-3-(4-fluorophenyl)-1-methyl-4-(phenylsulfonamido)-1H-pyrazole-5-carboxamide] yielded a pIC50 (FPR1 [1]) of less than 4.60.

In the case of `C[C@H](NC(=O)c1c(NS(=O)(=O)c2ccc(Cl)cc2)c(C2=CCC(F)(F)CC2)nn1C)C(C)(C)C` [Compound 36, (S)-4-((4-chlorophenyl)sulfonamido)-3-(4,4-difluorocyclohex-1-en-1-yl)-N-(3,3-dimethylbutan-2-yl)-1-methyl-1H-pyrazole-5-carboxamide], the pIC50 (FPR1 [1]) was less than 4.60.

Work on `COCc1ccccc1-c1nn(C)c(C(=O)N[C@@H](C)C(C)(C)C)c1NS(=O)(=O)c1ccc(C)cc1` [Compound 33, (S)—N-(3,3-dimethylbutan-2-yl)-3-(2-(methoxymethyl)phenyl)-1-methyl-4-((4-methylphenyl)sulfonamido)-1H-pyrazole-5-carboxamide] yielded a pIC50 (FPR1 [1]) of 6.00 to 7.00 and a pIC50 (FPR1 [2]) of 6.00 to 7.00.

`Cc1ccc(S(=O)(=O)Nc2c(C3(O)CCOCC3)nn(C)c2C(=O)N[C@@H](C)C(C)(C)C)cc1` [Compound 31, (S)—N-(3,3-dimethylbutan-2-yl)-3-(4-hydroxytetrahydro-2H-pyran-4-yl)-1-methyl-4-((4-methylphenyl)sulfonamido)-1H-pyrazole-5-carboxamide] showed a pIC50 (FPR1 [1]) of less than 4.60.

With `C[C@H](NC(=O)c1c(NS(=O)(=O)c2ccc(Cl)cc2)c(C2=CCC3(CC2)OCCO3)nn1C)C(C)(C)C` [Compound 24, (S)-4-((4-chlorophenyl)sulfonamido)-N-(3,3-dimethylbutan-2-yl)-1-methyl-3-(1,4-dioxaspiro[4.5]dec-7-en-8-yl)-1H-pyrazole-5-carboxamide] the pIC50 (FPR1 [1]) was 4.60 to 6.00 and the pIC50 (FPR1 [2]) was 4.60 to 6.00.

`Cc1ccc(S(=O)(=O)Nc2c(C3=CCC(C)(C)CC3)nn(C)c2C(=O)N[C@@H](C)C(C)(C)C)cc1` [Compound 18, (S)—N-(3,3-dimethylbutan-2-yl)-3-(4,4-dimethylcyclohex-1-en-1-yl)-1-methyl-4-((4-methylphenyl)sulfonamido)-1H-pyrazole-5-carboxamide] was tested, and the pIC50 (FPR1 [1]) was less than 4.60.

`Cc1ccc(S(=O)(=O)Nc2c(-c3cccc(OC(F)(F)F)c3)nn(C)c2C(=O)N[C@@H](C)C(C)(C)C)cc1` [Compound 34, (S)—N-(3,3-dimethylbutan-2-yl)-1-methyl-4-((4-methylphenyl)sulfonamido)-3-(3-(trifluoromethoxy)phenyl)-1H-pyrazole-5-carboxamide] gave a pIC50 (FPR1 [1]) of less than 4.60.

With `C[C@H](NC(=O)c1c(NS(=O)(=O)c2ccc(C#N)cc2)c(C2CCC(F)(F)CC2)nn1C)C(C)(C)C` [Compound 44, (S)-4-((4-cyanophenyl)sulfonamido)-3-(4,4-difluorocyclohexyl)-N-(3,3-dimethylbutan-2-yl)-1-methyl-1H-pyrazole-5-carboxamide] the pIC50 (FPR1 [1]) was 6.00 to 7.00 and the pIC50 (FPR1 [2]) was 6.00 to 7.00.

With `C[C@H](NC(=O)c1noc(C2CCOCC2)c1NS(=O)(=O)c1ccc(Cl)cc1)C(C)(C)C` [Compound 11, (S)-4-((4-chlorophenyl)sulfonamido)-N-(3,3-dimethylbutan-2-yl)-5-(tetrahydro-2H-pyran-4-yl)isoxazole-3-carboxamide] the pIC50 (FPR1 [1]) was less than 4.60.

With `CO[C@H]1CC[C@@H](c2nn(C)c(C(=O)N[C@@H](C)C(C)(C)C)c2NS(=O)(=O)c2ccc(Cl)cc2)CC1` [Compound 19, 4-((4-chlorophenyl)sulfonamido)-N—((S)-3,3-dimethylbutan-2-yl)-3-((1S,4R)-4-methoxycyclohexyl)-1-methyl-1H-pyrazole-5-carboxamide] the pIC50 (FPR1 [1]) was 6.00 to 7.00 and the pIC50 (FPR1 [2]) was greater than 7.00.

`Cc1ccc(S(=O)(=O)Nc2c(C3=CCOCC3)nn(C)c2C(=O)N[C@@H](C)C(C)(C)C)cc1` [Compound 16, (S)-3-(3,6-dihydro-2H-pyran-4-yl)-N-(3,3-dimethylbutan-2-yl)-1-methyl-4-((4-methylphenyl)sulfonamido)-1H-pyrazole-5-carboxamide] gave a pIC50 (FPR1 [1]) of 4.60 to 6.00 and a pIC50 (FPR1 [2]) of 6.00 to 7.00.

`COc1ccc(S(=O)(=O)Nc2c(-c3ccc(F)cc3)nn(C)c2C(=O)N[C@@H](C)C(C)(C)C)cc1` [Compound 27, (S)—N-(3,3-dimethylbutan-2-yl)-3-(4-fluorophenyl)-4-((4-methoxyphenyl)sulfonamido)-1-methyl-1H-pyrazole-5-carboxamide] gave a pIC50 (FPR1 [1]) of 6.00 to 7.00 and a pIC50 (FPR1 [2]) of 6.00 to 7.00.

`C[C@H](NC(=O)c1c(NS(=O)(=O)c2ccc(C#N)cc2F)c(-c2ccc(F)cc2)nn1C)C(C)(C)C` [Compound 28, (S)-4-((4-cyano-2-fluorophenyl)sulfonamido)-N-(3,3-dimethylbutan-2-yl)-3-(4-fluorophenyl)-1-methyl-1H-pyrazole-5-carboxamide] gave a pIC50 (FPR1 [1]) of 6.00 to 7.00 and a pIC50 (FPR1 [2]) of 6.00 to 7.00.

Work on `C[C@H](NC(=O)c1c(NS(=O)(=O)c2ccc(Cl)cc2)c(C2CCOCC2)nn1C1CC1)C(C)(C)C` [Compound 10, (S)-4-((4-chlorophenyl)sulfonamido)-1-cyclopropyl-N-(3,3-dimethylbutan-2-yl)-3-(tetrahydro-2H-pyran-4-yl)-1H-pyrazole-5-carboxamide] yielded a pIC50 (FPR1 [1]) of less than 4.60.

`C[C@H](NC(=O)c1c(NS(=O)(=O)c2ccc(Cl)cc2)c(-c2ccc(F)cc2)nn1C)C(C)(C)C` [Compound 38, (S)-4-((4-chlorophenyl)sulfonamido)-N-(3,3-dimethylbutan-2-yl)-3-(4-fluorophenyl)-1-methyl-1H-pyrazole-5-carboxamide] was tested, and the pIC50 (FPR1 [1]) was 6.00 to 7.00 and the pIC50 (FPR1 [2]) was 6.00 to 7.00.

In the case of `Cc1ccc(S(=O)(=O)Nc2c(C3=CCC(F)(F)CC3)nn(C)c2C(=O)N[C@@H](C)C(C)(C)C)cc1` [Compound 29, (S)-3-(4,4-difluorocyclohex-1-en-1-yl)-N-(3,3-dimethylbutan-2-yl)-1-methyl-4-((4-methylphenyl)sulfonamido)-1H-pyrazole-5-carboxamide], the pIC50 (FPR1 [1]) was less than 4.60.

With `Cc1ccc(S(=O)(=O)Nc2c(C3=CCOCC3)nn(C)c2C(=O)N[C@@H](C)C(C)(C)C)cc1` [Compound 30, (S)-3-(3,6-dihydro-2H-pyran-4-yl)-N-(3,3-dimethylbutan-2-yl)-1-methyl-4-((4-methylphenyl)sulfonamido)-1H-pyrazole-5-carboxamide] the pIC50 (FPR1 [1]) was 4.60 to 6.00.

Work on `Cc1ccc(S(=O)(=O)Nc2c(-c3cccc(OCC(C)C)c3)nn(C)c2C(=O)N[C@@H](C)C(C)(C)C)cc1` [Compound 35, (S)—N-(3,3-dimethylbutan-2-yl)-3-(3-isobutoxyphenyl)-1-methyl-4-((4-methylphenyl)sulfonamido)-1H-pyrazole-5-carboxamide] yielded a pIC50 (FPR1 [1]) of less than 4.60.

In the case of `C[C@H](NC(=O)c1c(NS(=O)(=O)c2ccc(Cl)cc2)c(-c2ccncc2)nn1C)C(C)(C)C` [Compound 5, (S)-4-((4-chlorophenyl)sulfonamido)-N-(3,3-dimethylbutan-2-yl)-1-methyl-3-(pyridin-4-yl)-1H-pyrazole-5-carboxamide], the pIC50 (FPR1 [1]) was less than 4.60.
